System: BT474 human breast carcinomas cell line
Experiment: In Vivo Tumor Models: BT474 xenograft
Settings: BT474 (HER2+) xenograft in CB-17/SCID mice, 100 mg/kg once per day oral gavage, 5 days on/2 days off, 4 weeks
Text: Xenografts were initiated with BT474 human breast carcinomas cell line and maintained by serial subcutaneous transplantation in CB-17/SCID mice (Charles River). On the day of tumor implant, each test mouse received a 1 mm^3 BT474 fragment implanted subcutaneously in the right flank, and tumor growth was monitored as the average size approached the target range of 100 to 150 mm3. About three weeks post-implantation, the animals were randomized and grouped based on tumor volume and mouse body weight. […] Tumors were measured in two dimensions using calipers, and volume was calculated using the formula: Tumor Volume (mm^3)=w^2×l/2.

With `CC1(N)CCN(c2cnc3c(-c4cccc(Cl)c4Cl)n[nH]c3n2)CC1` [Example 1, 1-(3-(2,3-dichlorophenyl)-1H-pyrazolo[3,4-b]pyrazin-6-yl)-4-methylpiperidin-4-amine] the “tolerability (body weight)” value was “tolerated dose” and the tumor growth was “significant suppression of tumor growth”.
